For this assay, the system named is skeletal sarcomere (skeletal myosin with actin, tropomyosin, and troponin complex). As to the kind of experiment: Screen of ATP hydrolysis rate of myosin with calcium-regulated actin filament (actin/tropomyosin/troponin), PK/LDH/NADH coupled enzyme system. As to conditions: screen conducted at pCa=6.5; unit not given. Format: biochemical. The procedure:
For example, test compounds can be assayed in a highly parallel fashion by using multiwell plates by placing the compounds either individually in wells or testing them in mixtures. Assay components including the target protein complex, coupling enzymes and substrates, and ATP can then be added to the wells and the absorbance or fluorescence of each well of the plate can be measured with a plate reader.
In some embodiments, the method uses a 384 well plate format and a 25 μL reaction volume. A pyruvate kinase/lactate dehydrogenase coupled enzyme system (Huang T G and Hackney D D. (1994) J Biol Chem 269(23):16493-501) can be used to measure the rate of ATP hydrolysis in each Well. As will be appreciated by those in the art, the assay components are added in buffers and reagents. The incubation periods can be optimized to give adequate detection signals over the background. The assay can be done in real time giving the kinetics of ATP hydrolysis which increases the signal to noise ratio of the assay.
Actin was purified by first preparing an ether powder of cardiac muscle (Zot H G and Potter J D. (1981) Preparative Biochemistry 11:381-395) as described below. Subsequently, actin was cycled between the filamentous and soluble state through rounds of centrifugation and dialysis (Spudich J A and Watt S. (1971) J. Biol. Chem. 246:4866-4871). It was stored in the filamentous state at 4° C.
Tropomyosin was extracted from the ether powder and separated from the other proteins based on pH dependent precipitations followed by successive ammonium sulfate cuts at 53% and 65% (Smillie L B. (1981) Methods Enzymol 85 Pt B:234-41). The troponins were isolated as an intact complex of TnC, TnT, and TnI. Ether powder is extracted in a high salt buffer. Successive ammonium sulfate cuts of 30% and 45% were done; the precipitate was solubilized by dialysis into a low salt buffer and then further purified on a DEAE Toyopearl column with a 25-350 mM KCl gradient.
Just prior to screening, the actin, tropomyosin, and troponin complex are mixed together in the desired ratio (e.g., 7:1:1) to achieve maximal calcium regulation of the actin filament. The screen is conducted at a pCa=6.5. This calcium concentration is in the physiological range during muscle contraction.
To measure the generation of ADP during the reaction, a pyruvate kinase/lactate dehydrogenase/NADH coupled enzyme system (PK/LDH) is added to the actin. The myosin is kept separately. The plates are read in real time so that kinetic curves are obtained. These compounds are in DMSO and were already spotted onto the bottoms of 384 well plates at 10 to 40 μg/ml final concentration.
• 1. Obtain ˜1000 g skeletal muscle, such as rabbit skeletal muscle. • 2. Grind twice; extract with 2 L solution A for 15 min while stirring; add 4 L cold H2O, filter through gauze; dilute with cold H2O to ionic strength of 0.04, (about 10-fold); let settle for 3 h; collect precipitate at 7,000 rpm in GSA rotor for 15 min. • 3. Disperse pellet in 220 ml solution B; dialyze overnight against 6 L solution C; slowly add ˜400 ml equal volume cold distilled H2O; stir for 30 min; centrifuge at 10,000 rpm for 10 min in GSA rotor. • 4. Centrifuge supernatant at 19,000 rpm for 1 h. • 5. Dilute supernatant to ionic strength of 0.04 (˜8-fold); let myosin settle overnight; collect about 5-6 L fluffy myosin precipitate by centrifuging at 10,000 rpm for 10 min in GSA rotor. • 6. Resuspend pellet in minimal volume of solution G; dialyze overnight against 2 L solution D; centrifuge at 19,000 rpm for 2 h, in cellulose nitrate tubes; puncture tubes and separate myosin from fat and insoluble pellet. • 7. Dilute supernatant to 5-10 mg/ml and dialyze against solution E extensively, load onto DEAE-sephadex column. • 8. […]

“3-(ethylpropyl)-5-ethynylimidazo[5,4-b]pyridin-2-ol”: the “AC1.4 Median” value is 2.366. In the case of “3-(ethylpropyl)-5-methylimidazo[5,4-b]pyridin-2-ol” it was 43.299. Consider “3-(ethylpropyl)-5-vinylimidazo[5,4-b]pyridin-2-ol”, for which the “AC1.4 Median” value was found to be 3.836. Turning to “5-(dimethylamino)-3-(ethylpropyl)imidazo[5,4-b]pyridin-2-ol”, the “AC1.4 Median” value amounted to 2.611. In the case of `C/C=C\c1ccc2nc(O)n(C(CC)CC)c2n1` [5-((1Z)prop-1-enyl)-3-(ethylpropyl)imidazo[5,4-b]pyridin-2-ol] it was 0.840; in that of `CCC(CC)n1c(O)nc2ccc(Br)nc21` [5-bromo-3-(ethylpropyl)imidazo[5,4-b]pyridin-2-ol], 8.050; in that of `CCC(CC)n1c(O)nc2ccc(Cl)nc21` [5-chloro-3-(ethylpropyl)imidazo[5,4-b]pyridin-2-ol], 21.134.
